Earlier results, collected in article PMC5192466, “Kunitz-Type Peptide HCRG21 from the Sea Anemone Heteractis crispa Is a Full Antagonist of the TRPV1 Receptor” (Marine Drugs, 2016).

What was measured:
Conditions in all cases: cited from earlier work
[1] = tested on: serine, cysteine and aspartate proteases
Text: To date, a number of highly homologous native serine protease inhibitors has been isolated from different species: Anemonia sulcata, Heteractis crispa, Anthopleura aff. xanthogrammica, Anthopleura fuscoviridis, Stichodactyla helianthus, and Stichodactyla haddoni.

α-chymotrypsin = α-chymotrypsin (Bos taurus, UniProt P00766)
Text: The HCGS peptide subfamily and their evolutionary relationships were described in details previously. […] Moreo ...

trypsin = target: trypsin
Text: The HCGS peptide subfamily and their evolutionary relationships were described in details previously. […] It is shown, that the first known H. crispa analgesic Kunitz-type peptides, APHC1–APHC3, have a Thr residue (instead of Lys or Arg) at position P1, similar to other representatives of the analgesic cluster (Figure 1a,b).

[2] = tested on: voltage-gated potassium channels
Text: For many potent Kv channel blocking toxins, such as α-DTX, DTX-K, and DTX-I, isolated from the snake Dendroaspis polylepis, it has been well established that mainly a series of positive charged residues (for example, R3, R4, K5, K37, K39, K46, and K50 in α-DTX) are crucial for interaction with the Kv channel. […] Although there are many positively charged residues present in the sequence of HCRG21, they do differ in position with known Kv1.1–Kv1.6 blockers, such as α-DTX, DTX-K, DTX-I, AsKC1, and ShPI-1 (Figure 1c). […] Noteworthy, several positively charged residues are conserved between HCRG21 and ShPI-1 (in positions 8, 19, 28, 51, and 55, Figure 1c). Therefore, other Kv channel isoforms should be tested for their sensitivity to HCRG21 as ...

In the case of “SHPI-1: protease inhibitor from the sea anemone Stichodactyla helianthus (UniProt P31713) (SICSEPKKVGRCKGYFPRFYFDSETGKCTPFIYGGCGGNGNNFETLHQCRAICRA; UniProt P31713 1-55, looked up)”, the protease inhibitory specificity [1] is given as “inhibits not only serine but also cysteine and aspartate proteases”, the Ki (α-chymotrypsin) is given as 2.3 nM and the Ki (trypsin) is given as 0.11 nM. The “binding to Kv1.1, Kv1.2, and Kv1.6 channels” value [2] was “binds with high affinity”.
